These results are taken from patent US20050064005A1, “Active agent delivery systems including a miscible polymer blend, medical devices, and methods” (priority 2003, published 2005).

The nature of this data set: In vitro elution kinetics of dual active agent release from coated stents in PBS at 37° C. The data set is classed as physicochemical. The procedure: The in vitro elution kinetics of dual release was carried out in PBS and at 37° C. The stent was crimped on a stent delivery system and then expanded. After expansion, the physical aspects of the stent were noted prior to placing the stent inside a vial containing 3 milliliters (ml) of PBS. The vial was placed in a shaker at 37° C. and at certain time intervals; the whole solution (3 ml) was removed and replaced with fresh PBS. The amount of each active agent in each dual release system was determined by UV-Vis spectrophotometer using wavelengths of 250 nanometers (nm) for mycophenolic acid and 359 nm for sulfasalazine and solving simultaneous equations of active agent mixtures.

As to `O=C(O)c1cc(/N=N/c2ccc(S(=O)(=O)Nc3ccccn3)cc2)ccc1O` [sulfasalazine], the “release rate of sulfasalazine” value (from blends of TECOPLAST and TECOPHILIC polyurethanes as outer layer (FIG. 4)) is listed as “increased as the percentage of TECOPHILIC polyurethane in the blend increased”.

For the compound `COc1c(C)c2c(c(O)c1C/C=C(\C)CCC(=O)O)C(=O)OC2` [mycophenolic acid], under “stent system of FIG. 1 with TECOPLAST middle barrier layer (FIG. 3) versus without barrier (FIG. 2), PBS, 37° C.”, the “release kinetics of the active agent in the inner layer” value is “slowed down significantly”.
